Assay results as given in PubChem BioAssay (NCI).
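How tested: cells in 96-well plates exposed to compound for 48 hours at five concentrations. GI50 = concentration required for 50% inhibition of growth. TGI: total growth inhibition.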

Tests used:
Experiment in all cases: NCI tumour cell line growth inhibition, 48 h
[1] = test system: 786-0 renal
[2] = test system: A498 renal
[3] = test system: A549 NSCLC
[4] = test system: ACHN renal
[5] = test system: BT-549 breast
[6] = test system: CAKI-1 renal
[7] = test system: CCRF-CEM leukemia
[8] = test system: COLO 205 colon
[9] = test system: DU-145 prostate
[10] = test system: HCC-2998 colon
[11] = test system: HCT-116 colon
[12] = test system: HCT-15 colon
[13] = test system: HL-60(TB) leukemia
[14] = test system: HOP-62 NSCLC
[15] = test system: HOP-92 NSCLC
[16] = test system: HS 578T breast
[17] = test system: HT29 colon
[18] = test system: IGROV1 ovarian
[19] = test system: K-562 leukemia
[20] = test system: KM12 colon
[21] = test system: LOX IMVI melanoma
[22] = test system: M14 melanoma
[23] = test system: MALME-3M melanoma
[24] = test system: MCF7 breast
[25] = test system: MDA-MB-231 breast
[26] = test system: MDA-MB-435
[27] = test system: MOLT-4 leukemia
[28] = test system: NCI-H226 lung
[29] = test system: NCI-H23 lung
[30] = test system: NCI-H460 lung
[31] = test system: NCI-H522 lung
[32] = test system: NCI/ADR-RES ovarian
[33] = test system: OVCAR-3 ovarian
[34] = test system: OVCAR-4 ovarian
[35] = test system: OVCAR-5 ovarian
[36] = test system: OVCAR-8 ovarian
[37] = test system: PC-3 prostate
[38] = test system: RPMI-8226 leukemia
[39] = test system: SF-268 CNS
[40] = test system: SF-295 CNS
[41] = test system: SF-539 CNS
[42] = test system: SK-MEL-2 melanoma
[43] = test system: SK-MEL-28 melanoma
[44] = test system: SK-MEL-5 melanoma
[45] = test system: SK-OV-3 ovarian
[46] = test system: SN12C renal
[47] = test system: SNB-19 CNS
[48] = test system: SNB-75 CNS
[49] = test system: SR leukemia
[50] = test system: SW-620 colon
[51] = test system: T-47D breast
[52] = test system: TK-10 renal
[53] = test system: U251 CNS
[54] = test system: UACC-257 melanoma
[55] = test system: UACC-62 melanoma
[56] = test system: UO-31 renal
[57] = test system: EKVX NSCLC
[58] = test system: RXF 393 renal

CCC(=O)Nc1nnc(Cc2ccc(OC)c(OC)c2)s1
GI50 [1]: > 100 µM
TGI [1]: > 100 µM
GI50 [2]: > 100 µM
TGI [2]: > 100 µM
GI50 [3]: > 100 µM
TGI [3]: > 100 µM
GI50 [4]: > 100 µM
TGI [4]: > 100 µM
GI50 [5]: > 100 µM
TGI [5]: > 100 µM
GI50 [6]: > 100 µM
TGI [6]: > 100 µM
GI50 [7]: > 100 µM
TGI [7]: > 100 µM
GI50 [8]: > 100 µM
TGI [8]: > 100 µM
GI50 [9]: > 100 µM
TGI [9]: > 100 µM
GI50 [10]: > 100 µM
TGI [10]: > 100 µM
GI50 [11]: > 100 µM
TGI [11]: > 100 µM
GI50 [12]: > 100 µM
TGI [12]: > 100 µM
GI50 [13]: > 100 µM
TGI [13]: > 100 µM
GI50 [14]: > 100 µM
TGI [14]: > 100 µM
GI50 [15]: 78.7 µM
TGI [15]: > 100 µM
GI50 [16]: > 100 µM
TGI [16]: > 100 µM
GI50 [17]: > 100 µM
TGI [17]: > 100 µM
GI50 [18]: > 100 µM
TGI [18]: > 100 µM
GI50 [19]: > 100 µM
TGI [19]: > 100 µM
GI50 [20]: > 100 µM
TGI [20]: > 100 µM
GI50 [21]: > 100 µM
TGI [21]: > 100 µM
GI50 [22]: > 100 µM
TGI [22]: > 100 µM
GI50 [23]: > 100 µM
TGI [23]: > 100 µM
GI50 [24]: > 100 µM
TGI [24]: > 100 µM
GI50 [25]: > 100 µM
TGI [25]: > 100 µM
GI50 [26]: > 100 µM
TGI [26]: > 100 µM
GI50 [27]: > 100 µM
TGI [27]: > 100 µM
GI50 [28]: > 100 µM
TGI [28]: > 100 µM
GI50 [29]: > 100 µM
TGI [29]: > 100 µM
GI50 [30]: > 100 µM
TGI [30]: > 100 µM
GI50 [31]: > 100 µM
TGI [31]: > 100 µM
GI50 [32]: > 100 µM
TGI [32]: > 100 µM
GI50 [33]: > 100 µM
TGI [33]: > 100 µM
GI50 [34]: > 100 µM
TGI [34]: > 100 µM
GI50 [35]: > 100 µM
TGI [35]: > 100 µM
GI50 [36]: > 100 µM
TGI [36]: > 100 µM
GI50 [37]: > 100 µM
TGI [37]: > 100 µM
GI50 [38]: > 100 µM
TGI [38]: > 100 µM
GI50 [39]: > 100 µM
TGI [39]: > 100 µM
GI50 [40]: > 100 µM
TGI [40]: > 100 µM
GI50 [41]: > 100 µM
TGI [41]: > 100 µM
GI50 [42]: > 100 µM
TGI [42]: > 100 µM
GI50 [43]: > 100 µM
TGI [43]: > 100 µM
GI50 [44]: > 100 µM
TGI [44]: > 100 µM
GI50 [45]: > 100 µM
TGI [45]: > 100 µM
GI50 [46]: > 100 µM
TGI [46]: > 100 µM
GI50 [47]: > 100 µM
TGI [47]: > 100 µM
GI50 [48]: 44.2 µM
TGI [48]: > 100 µM
GI50 [49]: > 100 µM
TGI [49]: > 100 µM
GI50 [50]: > 100 µM
TGI [50]: > 100 µM
GI50 [51]: > 100 µM
TGI [51]: > 100 µM
GI50 [52]: > 100 µM
TGI [52]: > 100 µM
GI50 [53]: > 100 µM
TGI [53]: > 100 µM
GI50 [54]: > 100 µM
TGI [54]: > 100 µM
GI50 [55]: > 100 µM
TGI [55]: > 100 µM
GI50 [56]: > 100 µM
TGI [56]: > 100 µM

C=C(C)C(=O)Nc1ccc(-c2c(-c3ccc(Oc4nccc(C)n4)c(F)c3)c3c(N)ncnc3n2C)cc1
GI50 [1]: 2.43 µM
TGI [1]: 30.6 µM
GI50 [2]: 1.72 µM
TGI [2]: 9.88 µM
GI50 [3]: 3.6 µM
TGI [3]: 18.5 µM
GI50 [4]: 3.81 µM
TGI [4]: 20.2 µM
GI50 [5]: 2.08 µM
TGI [5]: 15.8 µM
GI50 [6]: 1.92 µM
TGI [6]: 8.23 µM
GI50 [7]: 5.25 µM
TGI [7]: > 100 µM
GI50 [8]: 3.79 µM
TGI [8]: 13.8 µM
GI50 [9]: 3.86 µM
TGI [9]: 15.3 µM
GI50 [57]: 3.43 µM
TGI [57]: 17.1 µM
GI50 [10]: 7.45 µM
TGI [10]: 21 µM
GI50 [11]: 5.05 µM
TGI [11]: 19.8 µM
GI50 [12]: 3.11 µM
TGI [12]: 13.5 µM
GI50 [13]: 4.74 µM
TGI [13]: > 100 µM
GI50 [14]: 4.69 µM
TGI [14]: 20 µM
GI50 [15]: 2.83 µM
TGI [15]: 32.3 µM
GI50 [16]: 1.09 µM
TGI [16]: 4.1 µM
GI50 [17]: 3.22 µM
TGI [17]: 14.2 µM
GI50 [18]: 3.1 µM
TGI [18]: 17.4 µM
GI50 [19]: 3.43 µM
TGI [19]: > 100 µM
GI50 [20]: 3.87 µM
TGI [20]: 17 µM
GI50 [21]: 2.61 µM
TGI [21]: 12.8 µM
GI50 [22]: 5.64 µM
TGI [22]: 20 µM
GI50 [23]: 3.29 µM
TGI [23]: 17 µM
GI50 [24]: 3.55 µM
TGI [24]: 16.1 µM
GI50 [25]: 3.57 µM
TGI [25]: 22.2 µM
GI50 [26]: 7.19 µM
TGI [26]: 21.3 µM
GI50 [27]: 2.78 µM
TGI [27]: > 100 µM
GI50 [28]: 0.812 µM
TGI [28]: 7.46 µM
GI50 [29]: 4.27 µM
TGI [29]: 18.4 µM
GI50 [30]: 3.05 µM
TGI [30]: 13.3 µM
GI50 [31]: 3.57 µM
TGI [31]: 16.1 µM
GI50 [32]: 10.1 µM
TGI [32]: 31 µM
GI50 [33]: 4.77 µM
TGI [33]: 18.4 µM
GI50 [34]: 2.84 µM
TGI [34]: 33.8 µM
GI50 [35]: 4.43 µM
TGI [35]: 20.9 µM
GI50 [36]: 4.49 µM
TGI [36]: 19.2 µM
GI50 [37]: 6.78 µM
TGI [37]: 67.5 µM
GI50 [38]: 2.74 µM
TGI [38]: 17.3 µM
GI50 [58]: 0.0946 µM
TGI [58]: 0.984 µM
GI50 [39]: 1.67 µM
TGI [39]: 16 µM
GI50 [40]: 2.59 µM
TGI [40]: 13.4 µM
GI50 [41]: 1.88 µM
TGI [41]: 8.89 µM
GI50 [42]: 2.7 µM
TGI [42]: 9.74 µM
GI50 [43]: 4.38 µM
TGI [43]: 17.6 µM
GI50 [44]: 2.36 µM
TGI [44]: 8.21 µM
GI50 [45]: 14.7 µM
TGI [45]: 69.2 µM
GI50 [46]: 2.63 µM
TGI [46]: 17.2 µM
GI50 [47]: 10.7 µM
TGI [47]: > 100 µM
GI50 [48]: 1.18 µM
TGI [48]: 7.32 µM
GI50 [49]: 2.36 µM
TGI [49]: 9.64 µM
GI50 [50]: 8.7 µM
TGI [50]: 25.9 µM
GI50 [51]: 2.97 µM
TGI [51]: 35.5 µM
GI50 [52]: 4.98 µM
TGI [52]: 30 µM
GI50 [53]: 6.21 µM
TGI [53]: 25 µM
GI50 [54]: 9.27 µM
TGI [54]: 23.6 µM
GI50 [56]: 1.18 µM
TGI [56]: 2.98 µM
